Four molecules from ChEMBL document CHEMBL3414522, “Design, synthesis, and biological evaluation of novel matrix metalloproteinase inhibitors as potent antihemorrhagic agents: from hit identification to an optimized lead” (J Med Chem, 2015) can be followed below.

Series [1] can be described thus: in vitro. The note with it: human, liver microsomes. In general terms: Microsomes from liver hold many membrane-bound enzymes, among them those of drug oxidation.
The nature of series [2]: in vitro. The note with it: rat, liver microsomes.
A short description of series [3]: in vitro. The following applies: mouse, liver microsomes.
Series [4] is described as follows: Apparent permeability from apical to basolateral side in human Caco2 cells at 2 uM after 120 mins by LC-MS/MS analysis. The series is classed as ADME, cell-based. The following applies: caco-2, 2 h. For orientation: Passage across Caco-2 layers is used to estimate intestinal permeability.

In the case of `O=C(NO)C1(S(=O)(=O)c2ccc(Oc3ccc(OC(F)(F)F)cc3)cc2)CCC2(CCNCC2)C1` (centres undefined), the figures for the fraction remaining at 20 min, 1 µM in the series “in vitro [1]”, in “in vitro [2]” and in “in vitro [3]” were 92.1%, 95.6% and 87.2%, respectively.

With `CNC(=O)c1ccc(Oc2ccc(S(=O)(=O)C3(C(=O)NO)CCC4(CCNCC4)C3)cc2)cc1` (centres undefined), the results for the amount remaining at 20 min, 1 µM in the series “in vitro [1]”, in “in vitro [2]” and in “in vitro [3]” were 91.1%, 99.8% and 97.5%, respectively.

For the molecule `CNC(=O)c1ccc(Oc2ccc(S(=O)(=O)[C@@]3(C(=O)NO)CCC4(CCNCC4)C3)cc2)cc1`, the figures for the fraction remaining at 20 min, 1 µM in “in vitro [1]”, in “in vitro [2]” and in “in vitro [3]” were 97%, 97.4% and 89.6%, respectively. The Papp in series [4] turned out to be 0.00059 ×10⁻⁶ cm/s.

Turning to `CNC(=O)c1ccc(Oc2ccc(S(=O)(=O)[C@]3(C(=O)NO)CCC4(CCNCC4)C3)cc2)cc1`, the amount remaining at 20 min, 1 µM in “in vitro [1]” was 93.5%; in the series “in vitro [2]”, 98.1%; in “in vitro [3]” it was 98%. For the same molecule, the apparent permeability coefficient (Papp) in series [4] is 0.00016 ×10⁻⁶ cm/s.

A word on the amount remaining: it is the share of the starting amount still present when the sample was taken. One may read the Papp as a coefficient for how fast a substance crosses the barrier.
